Values of other authors in patent US9156879B1, “Chromatography media” (Merck Sharp & Dohme Corp., priority 2010, dated 2015).

Settings: critical micelle concentration of detergent

| Molecule | CMC % (w/v) |
| --- | --- |
| C[C@H](CCC(=O)NCCC[N+](C)(C)CCCS(=O)(=O)[O-])[C@H]1CC[C@H]2[C@@H]3[C@H](O)C[C@@H]4C[C@H](O)CC[C@]4(C)[C@H]3C[C@H](O)[C@]12C [CHAPS, 3[(3-cholamidopropyl)dimethylammonio]-1-propanesulfonate] | 0.49 % (w/v) |
| Deoxycholate | 0.21 % (w/v) |
| Triton X-100 | 0.021 % (w/v) |
| Nonidet P-40 | 0.017 % (w/v) |
| LysoPC | 0.0004 % (w/v) |
| CCCCCCCCCCCCCC[N+](C)(C)CCCS(=O)(=O)[O-] [Zwittergent 3-14] | 0.011 % (w/v) |
| CCCCCCCCCCCCOS(=O)(=O)[O-].[Na+] [SDS, sodium dodecyl sulfate] | 0.23 % (w/v) |
| CCCCCCCC/C=C\CCCCCCCC(=O)OCCOCC(OCCO)C1OCC(OCCO)C1OCCO (stereo not drawn) [Tween 80] | 0.002 % (w/v) |
| CCCCCCCCCCCCOCCOCCOCCOCCOCCOCCOCCOCCO [C12E8] | 0.005 % (w/v) |
| CCCCCCCCO[C@@H]1O[C@H](CO)[C@@H](O)[C@H](O)[C@H]1O [Octylglucoside] | 0.73 % (w/v) |
| C[C@H](CCC(=O)O)[C@H]1CC[C@H]2[C@@H]3[C@H](O)C[C@@H]4C[C@H](O)CC[C@]4(C)[C@H]3C[C@H](O)[C@]12C [Cholate] | 0.60 % (w/v) |
| CCCCCCCCCCCCCCCC[N+](C)(C)C.[Br-] [C16TAB] | 0.04 % (w/v) |
